According to patent publication US6875418B2, “Method of early detection of Duchenne muscular dystrophy and other neuromuscular disease” (Mouse Specifics, Inc., priority 2001, dated 2005):

Key:
[1] = test system: mdx mice; assay: Autonomic blockade, ECG heart rate and heart-rate variability in conscious mdx mice; assay type: in vivo, mouse
Method: (§1) Male control C57BL/10ScSn (C57, n=15) and male mutant (mdx, n=15) mice (10-12 weeks old) were obtained from The Jackson Laboratory, Bar Harbor, Me. The animals were housed in standard conditions within the Animal Resource Facility at the Beth Israel Deaconess Medical Center. Handling and care of mice were consistent with federal and institutional guidelines.
(§2) ECGs were recorded in conscious mice as follows. Briefly, mice were gently removed from their cages and positioned on the ECG recording platform (AnonyMOUSE, Mouse Specifics, Inc., Boston, Mass.). An array of gel-coated ECG electrodes were embedded in the floor of the platform and spaced to provide contact between the electrodes and animals' paws. The electrodes were connected to an amplifier by three shielded conductive leads. As even modest handling of mice induces significant alterations in heart-rate, each mouse was permitted to acclimatize for 10 min prior to collection of baseline data. The signals were digitized with 16-bit precision at a sampling rate of 2000 samples/second. When mice were sitting or otherwise positioned such that the paws were not in contact with three electrodes, the output from the amplifier was discarded. Only data from continuous recordings of 15-25 ECG signals were used in the analyses.
(§3) Analyses of the ECGs were performed as described as follows. Each signal was analyzed using e-MOUSE, internet-based physiologic waveform analyses software. […] The mean of the ECG time intervals for each set of waveforms is then calculated.
(§4) Heart-rate variability (HRV) was calculated as the standard deviation of all R—R intervals for each set of ECG signals. The coefficient of variance (CV,%) was calculated as the ratio of mean HRV to mean heart-rate.
Parasympathetic and sympathetic nervous system control of heart-rate regulation were investigated by pharmacological blockade. […] Baseline ECGs were recorded within 5 min prior to each administration and after a 5-10 min equilibrium phase after drug administration to allow for HR stabilization. […]

[2] = test system: C57 mice; assay: Autonomic blockade, ECG heart rate and heart-rate variability in conscious C57 control mice; assay type: in vivo, mouse
Method: as §1, §2
Analyses of the ECGs were performed as described as follows. Each signal was analyzed using e-MOUSE, internet-based physiologic waveform analyses software. The program incorporates Fourier analyses and linear time-invariant digital filtering of frequencies below 2 Hz and above 100 Hz to minimize signal environmental disturbances. The software uses a peak detection algorithm to find the peak of the R-waves and to calculate heart-rate (HR). The inverted and/or biphasic portions of the T wave was included in calculations of the QT interval. The QT intervals were rate corrected (QTc) by an algorithm developed for use in mice. The software plots its interpretation of P, Q, R, S, and T for each beat so that spurious data resulting from unfiltered noise or motion artifacts may be rejected. The mean of the ECG time intervals for each set of waveforms is then calculated.
as §4
Parasympathetic and sympathetic nervous system control of heart-rate regulation were investigated by pharmacological blockade. Mice received intraperitoneal administration of atropine (0.5 mg/kg) for parasympathetic blockade (n=15 mdx, n=15 C57), propranolol (1 mg/kg) for sympathetic blockade (n=10 mdx, n=7 C57), and atropine (0.5 mg/kg) plus propranolol (1 mg/kg) for combined β-adrenergic and muscarinic cholinergic blockade (n=10 mdx, n=7 C57). Baseline ECGs were recorded within 5 min prior to each administration and after a 5-10 min equilibrium phase after drug administration to allow for HR stabilization. The pharmacological interventions were performed on different days to prevent interference between drugs. […]
To study the effect of autonomic blockers on dystrophin deficient mice, parasympathetic and sympathetic nervous system control of heart-rate regulation were investigated by pharmacological blockade. […] Baseline ECGs were recorded within 5 min prior to each administration and after a 5-10 min equilibrium phase after drug administration to allow for HR stabilization.

[3] = test system: nNOS -/- mice; assay: Autonomic blockade, ECG heart rate and heart-rate variability in conscious nNOS -/- mice
[4] = test system: B6129 mice; assay: Baroreflex pressor response to phenylephrine in B6129 control mice; assay type: in vivo, mouse
[5] = test system: C57 mice; assay: Baroreflex pressor response to phenylephrine after β-adrenergic blockade in C57 mice; assay type: in vivo, mouse; settings: phenylephrine 3 mg/kg i.p. after propranolol 1 mg/kg
Method: as §2
as §3, with “software. The program incorporates Fourier analyses and linear time-invariant digital filtering of frequencies below 2 Hz and above 100 Hz to minimize signal environmental disturbances.” for “software.”
as §4
(§5) Mice were administered intraperitoneal phenylephrine (3 mg/kg) after β-adrenergic blockade with propranolol (1 mg/kg) to test for a baroreflex-mediated cardio-inhibitory response (n=10 mdx, n=7 C57).16,21 After baseline recordings, ECGs were recorded after a 5-10 min equilibrium phase following propranolol administration to allow for HR stabilization, and then within 2 min following phenylephrine administration. Changes in ECG indices following phenylephrine were determined relative to those recorded following propranolol administration. […]

[6] = test system: mdx mice; assay: Baroreflex pressor response to phenylephrine after β-adrenergic blockade in mdx mice; assay type: in vivo, mouse; settings: phenylephrine 3 mg/kg i.p. after propranolol 1 mg/kg
Method: as §2
as §3, with “software. The program incorporates Fourier analyses and linear time-invariant digital filtering of frequencies below 2 Hz and above 100 Hz to minimize signal environmental disturbances.” for “software.”
as §4, §5

[7] = test system: nNOS -/- mice; assay: Baroreflex pressor response to phenylephrine in nNOS -/- mice; assay type: in vivo, mouse
[8] = C57 mice, i.p., 5-10 min after drug vs baseline, atropine 0.5 mg/kg, propranolol 1 mg/kg
[9] = phenylephrine after propranolol
[10] = within 2 min, relative to post-propranolol

## CC(C)NCC(O)COc1cccc2ccccc12 (stereo not shown) [propranolol]
[1]; mdx mice, i.p., 5-10 min after drug vs baseline, atropine 0.5 mg/kg, propranolol 1 mg/kg, mean±SE
  change in HR: −60±27 bpm
[2]; [8]
  change in HRV: more significant in C57 than mdx mice
[2]; C57 mice, i.p., 5-10 min after drug vs baseline, atropine 0.5 mg/kg, propranolol 1 mg/kg, mean±SE
  change in HR: −122±53 bpm

## CN1[C@@H]2CC[C@H]1C[C@@H](OC(=O)C(CO)c1ccccc1)C2 (stereo partly shown) [atropine]
[1]; mdx mice n=15, atropine 0.5 mg/kg i.p.
  direction of heart-rate change in individual mice: decreased in all 15 mdx mice
[1]; mdx mice, atropine 0.5 mg/kg i.p., FIG. 2a legend
  HR decreased by: 90±14 bpm
[3]; FIG. 5
  directional change in HR in response to drug: significantly increased HR
[3]; baseline 686±22 bpm, P=0.07
  HR after atropine administration: 721±12 bpm
[3]; from 2.6±0.1 ms, P<0.05
  HRV after atropine administration: 0.7 ± 0.1 ms
[3]; from 2.7±0.8%, P<0.05
  CV after atropine administration: 0.8±0.1%
[2]; C57 mice n=15, atropine 0.5 mg/kg i.p.
  direction of heart-rate change in individual mice: increased in all but 2 of the C57 mice
[2]; C57 mice, atropine 0.5 mg/kg i.p., baseline 2.7±0.9 ms
  HRV after atropine administration: 0.5 ± 0.9 ms
[2]; [8]
  change in HRV: -1.6 ± 0.7 ms

## CNC[C@H](O)c1cccc(O)c1 [phenylephrine]
[4]; Example 4
  increase in HRV after phenylephrine: +11.8±3.7 ms
[4]; [9]
  change in HR after phenylephrine: −360±6 bpm
[5]
  CV after phenylephrine administration: 15.8±2.4%
  HRV after phenylephrine administration: 28.6 ± 4.1 ms
[5]; [10]
  change in HR after phenylephrine: −312±27 bpm
[6]
  CV after phenylephrine administration: 6.0±1.7%
  HRV after phenylephrine administration: 8.5 ± 2.5 ms
[6]; [10]
  change in HR after phenylephrine: −132±27 bpm
[7]; Example 4
  increase in HRV after phenylephrine: +13.3±3.7 ms
[7]; [9]
  change in HR after phenylephrine: −288±39 bpm
